Patent US20070113300A1 (priority 2003, published 2007)

Target: ClpP Enzyme
Assay type: biochemical
Settings: pH 8

Structure (SMILES)	IC50 [µM]
O=[N+]([O-])C(=C1Nc2ccccc2N1)C(Cl)=C(Cl)Cl [(I)]	23
Clc1nc2ccccc2nc1N1CC1 [(II)]	19
COc1ccc(/C=C(\C#N)c2nnc(/N=C/N(C)C)s2)cc1 [(III)]	25
